This experiment has as its system SW1271 complex spheroids with HUVEC/MSC, growth, % test/control. The experiment in a line: Anticancer human tumor SW1271 cell line growth inhibition [AhR].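 For all read-outs here: spheroids exposed to agents for 7 days before readout.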 As to conditions: for viability, T/C: stronger effect = lower value. In short, it runs like this: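 Complex tumor spheroids co-cultured with HUVEC and human MSC stroma; AhR antagonists tested in combination with standard-of-care and investigational agents. Top concentration at or near clinical Cmax (else 10 microM), half-log dilutions; growth expressed as percent test/control.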

[1] abbreviates: curve of first compound, second compound 0.1 µM.
The mark [2] stands for this setting: curve of first compound, second compound 0.316 µM.
Setting [3] is: curve of first compound, second compound 1 µM.
[4] abbreviates: curve of first compound, second compound 3.16 µM.
The mark [5] stands for this setting: curve of first compound, second compound 10 µM.
Setting [6] is: second compound 0.1 µM, first compound 0.0316 µM.
The mark [7] stands for this setting: second compound 0.1 µM, first compound 0.1 µM.
Where [8] appears, read: second compound 0.1 µM, first compound 0.316 µM.
Setting [9] is: second compound 0.1 µM, first compound 1 µM.
[10] abbreviates: second compound 0.1 µM, first compound 3.16 µM.
[11] abbreviates: second compound 0.1 µM, first compound 10 µM.
Where [12] appears, read: second compound 0.316 µM, first compound 0.0316 µM.
[13] abbreviates: second compound 0.316 µM, first compound 0.1 µM.
Setting [14] is: second compound 0.316 µM, first compound 0.316 µM.
Setting [15] is: second compound 0.316 µM, first compound 1 µM.
The mark [16] stands for this setting: second compound 0.316 µM, first compound 3.16 µM.
Where [17] appears, read: second compound 0.316 µM, first compound 10 µM.
Setting [18] is: second compound 1 µM, first compound 0.0316 µM.
Setting [19] is: second compound 1 µM, first compound 0.1 µM.
[20] abbreviates: second compound 1 µM, first compound 0.316 µM.
Where [21] appears, read: second compound 1 µM, first compound 1 µM.
The mark [22] stands for this setting: second compound 1 µM, first compound 3.16 µM.
The mark [23] stands for this setting: second compound 1 µM, first compound 10 µM.
Setting [24] is: second compound 3.16 µM, first compound 0.0316 µM.
The mark [25] stands for this setting: second compound 3.16 µM, first compound 0.1 µM.
Where [26] appears, read: second compound 3.16 µM, first compound 0.316 µM.
Setting [27] is: second compound 3.16 µM, first compound 1 µM.
Where [28] appears, read: second compound 3.16 µM, first compound 3.16 µM.
The mark [29] stands for this setting: second compound 3.16 µM, first compound 10 µM.
[30] abbreviates: second compound 10 µM, first compound 0.0316 µM.
Where [31] appears, read: second compound 10 µM, first compound 0.1 µM.
[32] abbreviates: second compound 10 µM, first compound 0.316 µM.
Where [33] appears, read: second compound 10 µM, first compound 1 µM.
The mark [34] stands for this setting: second compound 10 µM, first compound 3.16 µM.
Where [35] appears, read: second compound 10 µM, first compound 10 µM.

Where “and” joins values, the source holds several entries; their conditions need not be identical. Equal entries are not always repeated.

In the case of `CC1(C)CCC(CN2CCN(c3ccc(C(=O)NS(=O)(=O)c4ccc(NCC5CCOCC5)c([N+](=O)[O-])c4)c(Oc4cnc5[nH]ccc5c4)c3)CC2)=C(c2ccc(Cl)cc2)C1` + Cc1cncc(-c2nc(NCCc3c[nH]c4ccccc34)c3ncn(C(C)C)c3n2)c1, the 50% inhibitory concentration (IC50) – broadly, the concentration that inhibits the measured activity by half – is > 10000 nM under setting [1]; > 10000 nM under setting [2]; > 10000 nM under setting [3]; > 10000 nM under setting [4]; < 31.6 nM under setting [5]. Moreover, the viability, T/C (usually the ratio of treated to control) was 101% under setting [6]; 92.7% under setting [7]; 101% under setting [8]; 116% under setting [9]; 131% under setting [10]; 95.7% under setting [11]. For the same compound, the viability, T/C under setting [12] is 95%; the viability, T/C under setting [13] was 93.3%; the viability, T/C under setting [14] is 102%; the viability, T/C under setting [15] is 88.4%; the viability, T/C under setting [16] is 101%; the viability, T/C under setting [17] was 125%. Also, the viability, T/C is 95.5% under setting [18]; 79.8% under setting [19]; 104% under setting [20]; 90.5% under setting [21]; 111% under setting [22]; 102% under setting [23]. In addition, the viability, T/C by setting is: under setting [24], 120%; under setting [25], 98.5%; under setting [26], 102%; under setting [27], 94.7%; under setting [28], 115%; under setting [29], 110%. For the same compound, the viability, T/C is 36.9% under setting [30]; 46% under setting [31]; 49.5% under setting [32]; 33.6% under setting [33]; 48.9% under setting [34]; 44.9% under setting [35].
As for `CC(C)c1c(-c2ccccc2)nc2c(C#N)c[nH]n2c1=O` + Cc1ccccc1N=Nc1ccc(NC(=O)c2ccnn2C)c(C)c1, the IC50 by setting is: under setting [1], > 10000 nM; under setting [2], > 10000 nM; under setting [3], > 10000 nM; under setting [4], > 10000 nM; under setting [5], > 10000 nM. Further, the viability, T/C reads like this: under setting [6], 99.6%; under setting [7], 85.9%; under setting [8], 94.9%; under setting [9], 78%; under setting [10], 102%; under setting [11], 102%. Further, the viability, T/C under setting [12] is 102%; the viability, T/C under setting [13] is 110%; the viability, T/C under setting [14] is 112%; the viability, T/C under setting [15] is 107%; the viability, T/C under setting [16] was 85.3%; the viability, T/C under setting [17] was 77.3%. Moreover, the viability, T/C by setting is: under setting [18], 90.5%; under setting [19], 97.6%; under setting [20], 91%; under setting [21], 113%; under setting [22], 107%; under setting [23], 94.4%. Moreover, the viability, T/C reads like this: under setting [24], 93.3%; under setting [25], 88.3%; under setting [26], 130%; under setting [27], 109%; under setting [28], 119%; under setting [29], 101%. Besides, the viability, T/C was 76.5% under setting [30]; 88.5% under setting [31]; 108% under setting [32]; 113% under setting [33]; 88.2% under setting [34]; 87.6% under setting [35].
For `COc1cc(Nc2ncc3c(n2)-c2ccc(Cl)cc2C(c2c(F)cccc2OC)=NC3)ccc1C(=O)O` + CC(CO)NC(=O)c1cc(-c2ccc(Cl)cc2)nn(-c2cnn(C)c2)c1=O, the IC50 under setting [1] was 6120 nM; the IC50 under setting [2] is > 10000 nM; the IC50 under setting [3] is > 10000 nM; the IC50 under setting [4] is > 10000 nM; the IC50 under setting [5] was determined as 3590 nM. Moreover, the viability, T/C runs as follows: under setting [6], 77.5%; under setting [7], 73.2%; under setting [8], 82.6%; under setting [9], 79.4%; under setting [10], 58.1%; under setting [11], 44%. The viability, T/C was 61.6% under setting [12]; 58% under setting [13]; 76.6% under setting [14]; 66% under setting [15]; 52.5% under setting [16]; 44.5% under setting [17]. Further, the viability, T/C reads like this: under setting [18], 59.7%; under setting [19], 67.1%; under setting [20], 72.7%; under setting [21], 73.8%; under setting [22], 71.5%; under setting [23], 47.4%. Also, the viability, T/C is, setting by setting: under setting [24], 55.7%; under setting [25], 55.4%; under setting [26], 60.3%; under setting [27], 61.6%; under setting [28], 56.9%; under setting [29], 41.8%. Further, the viability, T/C is, setting by setting: under setting [30], 66.6%; under setting [31], 58.7%; under setting [32], 70.2%; under setting [33], 54.4%; under setting [34], 52.2%; under setting [35], 38.9%.
Consider `O=C(C=Cc1cccc(S(=O)(=O)Nc2ccccc2)c1)NO` + CC(CO)NC(=O)c1cc(-c2ccc(Cl)cc2)nn(-c2cnn(C)c2)c1=O, for which the half-maximal inhibitory concentration (IC50) under setting [1] amounted to 1200 nM; the IC50 under setting [2] came out at 768 nM; the IC50 under setting [3] was 1500 nM; the concentration for half-maximal inhibition (IC50) under setting [4] was 914 nM; the IC50 under setting [5] is 793 nM. Also, the viability, T/C under setting [6] was 98.4%; the viability, T/C under setting [7] is 92.5%; the viability, T/C under setting [8] was 75.4%; the viability, T/C under setting [9] is 57.9%; the viability, T/C under setting [10] is 24.7%; the viability, T/C under setting [11] was 9.02%. Further, the viability, T/C reads like this: under setting [12], 92.4%; under setting [13], 87.6%; under setting [14], 71.1%; under setting [15], 45.5%; under setting [16], 16.6%; under setting [17], 11.7%. Besides, the viability, T/C was 85.9% under setting [18]; 80.8% under setting [19]; 75.5% under setting [20]; 63% under setting [21]; 28.4% under setting [22]; 9.03% under setting [23]. The viability, T/C under setting [24] was 85%; the viability, T/C under setting [25] is 73.1%; the viability, T/C under setting [26] is 65.2%; the viability, T/C under setting [27] was 51.4%; the viability, T/C under setting [28] is 27%; the viability, T/C under setting [29] was 10.7%. Also, the viability, T/C by setting is: under setting [30], 90.2%; under setting [31], 76.2%; under setting [32], 54.4%; under setting [33], 57.1%; under setting [34], 26.7%; under setting [35], 9.34%.
Regarding `Cc1cncc(-c2nc(NCCc3c[nH]c4ccccc34)c3ncn(C(C)C)c3n2)c1`, under “compound 10 µM”, the viability, T/C was 46.3% [middle of 20 runs].
For `CC(CO)NC(=O)c1cc(-c2ccc(Cl)cc2)nn(-c2cnn(C)c2)c1=O` (stereo not given), the viability, T/C (compound 0.1 µM) is 94.2% [middle of 20 runs]. Further, the half-maximal inhibitory concentration (IC50) (compound alone, run of 08/08/2022) was > 10000 nM.
Turning to `O=C(C=Cn1cnc(-c2cc(C(F)(F)F)cc(C(F)(F)F)c2)n1)NNc1cnccn1`, the viability, T/C is 95.2% and 89.5% and 105% (compound 0.00949 µM); 92.7% and 78.8% and 61.8% (compound 0.03 µM); 79.7% and 88.9% and 77.8% (compound 0.0949 µM); 78.9% and 65.1% and 64.9% (compound 0.3 µM); 55% and 57% and 44.6% (compound 0.949 µM); 42.1% and 41.2% and 35.7% (compound 3 µM). The IC50 (curve of compound) is 1660 nM and 1430 nM and 701 nM.

Source of the values: PubChem BioAssay AID1919017 (Molecular Pharmacology Branch, DTP, NCI, 2023).
